Reference: the METLIN SMRT retention time set (Domingo-Almenara et al. 2019)

Experiment: gradient 5% acetonitrile 3 min, to 50% in 2 min, to 85% in 15 min, held 3 min, 100 µL/min
Settings: column: Zorbax Extend-C18 2.1 x 50 mm; eluents: water / acetonitrile, 0.1% formic acid
Procedure, shortened: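 Retention times of pure standards were taken from adduct peaks that were selected by computer and manually inspected. Over 3 months, mixtures of ~100 molecules were run by HPLC–quadrupole time-of-flight mass spectrometry in positive and negative ionization mode. The Zorbax Extend-C18 column (2.1 × 50 mm, 1.8 μm) ran at 100 μL/min in water and acetonitrile, each containing 0.1% formic acid, with 40 μL dead volume and 900 μL dwell volume.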

Compound | RP-LC retention time
CCCCC(=O)N1CCN(c2nc(C)cc(NCC)n2)CC1 | 618 s
COc1ccc(C(=O)c2cnc3cc4c(cc3c2N2CCN(C)CC2)OCCO4)cc1 | 560 s
COc1ccc(NC(=O)Cn2c(=O)n(-c3ccc(F)cc3)c(=O)c3c2cc(C)n3C)c(OC)c1 | 832 s
CCN1CCn2cc(S(=O)(=O)Nc3cccc(OC)c3)cc2C1=O | 700 s
Cc1ccc(C)c(CNC(=O)C2CCN(CCc3cn(C)c4ncccc34)CC2)c1 | 639 s
COc1ccc(C(=O)N[C@@H]2CCC[C@@H]2C(=O)N(C)C)cn1 | 595 s
O=C(Nc1ccccc1)C1(CCO)CC12CCOCC2 (centres undefined) | 639 s
O=C(CSCc1ccccc1)NCC1(c2cccs2)CCOCC1 | 819 s
COc1ccc(N2CCN(c3cc(SCC(=O)Nc4ccc(C#N)cc4)ncn3)CC2)cc1 | 890 s
O=C1CC(C(=O)N2CCN(Cc3ccccc3)CC2)CN1CCc1ccccc1 (centres undefined) | 740 s
CCn1nccc1-c1cccc(-c2noc(-c3cccc(NC(C)=O)c3)n2)c1 | 924 s
CCC(=O)N1CCc2sc(C(=O)N3CCN(c4ccc(OC)cc4)CC3)cc2C1 | 717 s
CCOc1ccc(CC(=O)N2C[C@@H]3C[C@H]2C[C@@H]3NS(=O)(=O)c2cccs2)cc1 | 791 s
O=C(Nc1ccccc1F)N1CCC(n2cnc3ccc(Cl)cc3c2=O)CC1 | 806 s
CC(C)(C)OC(=O)COC(=O)c1cn(-c2ccc(F)cc2)c(=O)c2ccccc12 | 1140 s
COc1ccc(C(=O)Nc2nc(CC(=O)NCc3cccs3)cs2)cc1 | 739 s
CCOC(=O)c1cc(S(=O)(=O)N2CCCC2C(=O)Nc2ccc(F)cc2)cn1C (centres undefined) | 920 s
CCN(C(=O)c1cc2c(=O)n(C)c(=O)n(C)c2s1)c1ccc(OC)cc1 | 801 s
CC(=O)N1CCc2cc(N3CC(C(=O)Nc4ccc(F)c(F)c4)CC3=O)ccc21 (centres undefined) | 726 s
CC(NC(=O)C1=C2CCCN2c2ccc(F)cc2S1(=O)=O)c1ccc(F)cc1 (centres undefined) | 935 s
O=C(COc1ccc(-c2cnc3ccccc3n2)cc1)NCC1CCCO1 (centres undefined) | 726 s
FC(F)(F)c1nc2cc3c(cc2n1Cc1ccc(Br)cc1)OCCO3 | 1080 s

Compound | RP-LC retention time
Cc1ccc(C2CC(=O)c3cnc(Nc4nc(C)c5ccc(C)cc5n4)nc3C2)cc1 (centres undefined) | 808 s
CSc1ccc(CNC(=O)CCc2nnc3c4cc(-c5ccccc5)nn4ccn23)cc1 | 780 s
CCc1noc(NC(C)=O)c1-c1ccc(C)c(S(=O)(=O)NCc2ccc(OC)cc2)c1 | 807 s
CC(NC(=O)C1CCCN(c2nc3ccsc3c(=O)n2Cc2ccccc2)C1)c1ccc(F)cc1 (centres undefined) | 951 s
CCCn1cc(CCNC(=O)Nc2ccc(C)c(Cl)c2)c2cccnc21 | 884 s
CC(C)N1C(=O)c2cccnc2Sc2cc(NC(=O)CCc3ccccc3)ccc21 | 922 s
Cc1nc(-c2csc(S(=O)(=O)N3CCCC(C(=O)N4CCc5ccccc54)C3)c2)no1 (centres undefined) | 1020 s
Cc1cc(C(=O)Nc2cccc(F)c2)nc2ccnn12 | 889 s
O=C(COc1ccccc1)NCCSc1c[nH]c2ccccc12 | 831 s
Cc1nnc(-c2cn(CC(=O)Nc3cccc(Br)c3)c3ccccc23)o1 | 893 s
Cc1nnc(N2CCCC(C(=O)NCc3ccccc3Cl)C2)c2nn(-c3ccccc3)c(C)c12 (centres undefined) | 759 s
O=C1CN(Cc2ccc(F)cc2Cl)C2(CCCC2)CN1 | 668 s
CN(CCc1noc(-c2ccccc2)n1)C(=O)Nc1cccc(Br)c1 | 977 s
CCOC(=O)CCC(=O)NCCN1CCN(c2ccccc2)CC1 | 564 s
O=C(Nc1cnn(-c2ncc(N3CCSCC3)cn2)c1)C1CCOC1 (centres undefined) | 640 s
CC(C)CNC(=O)CCn1c(=O)c2ccccc2n2c(=O)n(Cc3ccccc3F)nc12 | 879 s
N#Cc1ccc(CN2CC(n3cc(COc4ccc(F)cc4)nn3)C2)cc1 | 678 s
C=CCn1c(=O)c2ccccc2n(Cc2nc(-c3cccc(C(F)(F)F)c3)no2)c1=O | 1110 s
Cc1cccnc1NC(=O)c1csnn1 | 637 s
CC(C)n1cnc2cc(CNC(=O)c3cccc(C#N)c3)ccc21 | 596 s
O=C(NCc1csc(-c2cccs2)n1)C1CCN(C(=O)COc2ccccc2)CC1 | 770 s
CC1(C)C(=O)NCCN1C(=O)c1cccc(Br)c1 | 649 s
